From publication PMC4888459 (Biochemical Journal, 2016)

Tests used:
[1] = target: AgD from S. mutans (agmatine deiminase) (Streptococcus mutans, UniProt Q8DW17); assay: IC50 plot; type: biochemical
agmatine deiminase (AgD) = agmatine deiminase (AgD) (Listeria monocytogenes, UniProt A0A0H3G8U9); assay: IC50, colorimetric; type: biochemical
purified protein = substrate: N=C(N)NCCCCN; assay: purified protein; type: biochemical, Listeria monocytogenes; conditions: active site (Cys356, His216; Asp94 and Asp218 believed to orient the substrate)

Sequence of AgD from S. mutans (agmatine deiminase) (Q8DW17 whole entry): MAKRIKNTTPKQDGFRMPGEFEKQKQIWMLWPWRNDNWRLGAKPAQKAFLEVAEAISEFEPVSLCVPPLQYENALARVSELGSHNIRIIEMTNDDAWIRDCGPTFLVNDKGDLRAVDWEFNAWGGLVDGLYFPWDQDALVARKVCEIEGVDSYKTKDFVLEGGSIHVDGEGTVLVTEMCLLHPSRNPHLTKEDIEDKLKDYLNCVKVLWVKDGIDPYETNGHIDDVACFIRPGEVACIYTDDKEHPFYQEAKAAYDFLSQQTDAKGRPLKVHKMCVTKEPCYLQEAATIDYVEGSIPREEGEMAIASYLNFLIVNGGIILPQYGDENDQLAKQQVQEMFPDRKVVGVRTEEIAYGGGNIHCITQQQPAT

Molecule | IC50 (agmatine deiminase (AgD)) [µM] | other results
N=C(N)CCl [2-chloroacetamidine] |  | IC50 [1]: 400 ± 100 µM
N=C(CCl)NCCCCN [ABCA, N-(4-aminobutyl)-2-chloro-ethanimidamide] | 78.5 ± 1.7 | 
N=C(CF)NCCCCN [ABFA, N-(4-aminobutyl)-2-fluoro-ethanimidamide] | 146 ± 15 | 
agmatine deiminase (AgD) (Listeria monocytogenes 10403S) (protein) MRTIDSSSKKDGFRMPGEFEKHAGCYIIWPERPDNWRLGAKPAQKAFVDVATAISHFEPVTVVASSSQYVNARYMLSDEIRVVEMDNDDAWVRDSGPTFVVNDSGDVRGVDWSFNSWGGLVDGLYFPWDKDDQVAQKICELERKDRYRLADFVLEGGSIHVDGEGTLVTTEECLLSEGRNPQLSKQQIEMVLKEYLNLEKIIWLKRGIYLDETNGHVDNIFNYVRPGVVALAWTDDETDPQYEISKECFDILSNETDAKGRKLEVHKINVPKPILITDEESKGVDAVEGTLPREEGDRLAASYINYYTANGGVIFPLFGDPNDELAREKLQQLYPNCEVVGVKAREILLGGGNIHCITQQVPRG |  | Km (purified protein): 330 ± 90.0 µM
